The record followed here is patent publication US8299209B2, “Pharmaceutical composition comprising cyclic somatostatin analogues” (Novartis AG, priority 2003, dated 2012).

Numbered stars: 1 amine (or outer) side, 2 acyl side, 3 side chain; on linkers, the order of the positions; unused ones are H or OH. Square brackets hold non-standard residues; d marks the D form. Side chains are listed from the residue outwards. Peptide text beside a SMILES is read from it. * marks the point of attachment. ξ: configuration not given here. Ethylenediamine = C(CN[*:2])N[*:1]; dPhg = N[C@@H](C(=O)O)c1ccccc1; ξHyp = O=C(O)C1CC(O)CN1; CO = O=C([*:1])[*:2]; Bn = c1ccc(C*)cc1

Data set [1] is described as follows: storage stability of the composition. Particulars: in the composition of the invention. It counts as physicochemical. Here is the method: For example, less than 2.5% of degradation products were found after 4 weeks storage at 60° C. For example, if stored with light protection at 2° C. to 8° C., the compositions of the invention are stable over 24 months.
Data set [2] concerns the target T1, hsst3 (Homo sapiens, UniProt P32745).
T1 construct: expressed in transfected cells
The data set is described as follows: competition binding assay on membranes of cells expressing hsst3. Here is the method: (§1) The experiments are carried out in triplicate.

For data set [3], the target named is T2, hsst2 (Homo sapiens, UniProt P30874).
T2 construct: expressed in transfected cells
Description: competition binding assay on membranes of cells expressing hsst2. Here is the method: as §1

For data set [4], the target named is T3, hsst5 (Homo sapiens, UniProt P35346).
T3 construct: expressed in transfected cells
Description: competition binding assay on membranes of cells expressing hsst5. Conditions: IC50 value in the nMolar range. Here is the method: as §1

Data set [5] deals with growth hormone release. Description: inhibition of growth hormone (GH) release in rats. It counts as in vivo, rat. Conditions: s.c. to anaesthetized rats. Here is the method:
Compound B is administered s.c. to anaesthetized rats. Blood is collected after decapitation 1 h after administration of the compound. The duration of action is estimated on the basis of the inhibition of basal GH secretion 6 h after drug treatment. Hormone levels are measured by RIA 1 h and 6 h after treatment. The ID50-value for the inhibition of the hormone secretion is determined graphically (log-probit) for each experiment and the resulting values are averaged logarithmically.

Data set [6] deals with cultured pituitary cells. Description: inhibition of GH release in vitro from cultured pituitary cells. It counts as cell-based. Conditions: rat anterior pituitary cells, three hours, 3×10^−10 M growth hormone releasing factor. Here is the method: For example, anterior pituitary glands from adult male rats are cut into small pieces and dispersed using 0.1% trypsin in 20 mM HEPES buffer. The dispersed cells are cultured for four days in MEM (Gibco) supplemented with 5% fetal calf serum, 5% horse serum, 1 mM NaHCO3, 2.5 nM dexamethasone, 2.5 mg/ml insulin and 20 U/ml Pen/Strep. On the day of the experiment the attached cells are washed two times with Krebs-Ringer medium buffered with 20 mM HEPES and supplemented with 5 mM glucose and 0.2% BSA. […] The amount of growth hormone released into the medium is measured by RIA.

Data set [7] has as its target hsst1 (Homo sapiens, UniProt P30872).
Description: The binding assays may be carried out as disclosed hereunder using membranes from cell lines expressing selectively and stably hsst1, hsst2, hsst3, hsst4 or hsst5, e.g. CHO or COS cells.
Membranes prepared from hsst selective cell lines, e.g. CHO or COS cells stably expressing hsst1 or hsst2 or hsst3 or hsst4 or hsst5 are incubated in triplicate in a total volume of 300 μl at 22° C. for 30 min with increasing concentrations of [^125I-Tyr^11]-SRIF-14 in 10 mmol/l Hepes buffer (pH 7.6) containing 0.5% BSA. The incubation is terminated by rapid filtration and the filters are counted in a counter. Specific binding is total binding minus non-specific binding in the presence of 1 μmol/l somatostatin-14. The experiments are carried out in triplicate. The affinity constant (KD) and number of binding sites are calculated using appropriate statistics and graphical programs.

T3 sequence (P35346 whole entry): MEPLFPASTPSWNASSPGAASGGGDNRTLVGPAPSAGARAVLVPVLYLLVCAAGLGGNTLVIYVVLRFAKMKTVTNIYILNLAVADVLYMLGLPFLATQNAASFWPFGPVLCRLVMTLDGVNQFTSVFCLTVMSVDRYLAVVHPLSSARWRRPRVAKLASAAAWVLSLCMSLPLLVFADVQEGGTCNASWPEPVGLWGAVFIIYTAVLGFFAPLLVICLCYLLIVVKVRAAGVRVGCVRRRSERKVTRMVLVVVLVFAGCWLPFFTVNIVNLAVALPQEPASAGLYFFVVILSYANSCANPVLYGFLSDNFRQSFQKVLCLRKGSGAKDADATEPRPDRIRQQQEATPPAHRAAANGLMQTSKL
Sequence of hsst1 (P30872 whole entry): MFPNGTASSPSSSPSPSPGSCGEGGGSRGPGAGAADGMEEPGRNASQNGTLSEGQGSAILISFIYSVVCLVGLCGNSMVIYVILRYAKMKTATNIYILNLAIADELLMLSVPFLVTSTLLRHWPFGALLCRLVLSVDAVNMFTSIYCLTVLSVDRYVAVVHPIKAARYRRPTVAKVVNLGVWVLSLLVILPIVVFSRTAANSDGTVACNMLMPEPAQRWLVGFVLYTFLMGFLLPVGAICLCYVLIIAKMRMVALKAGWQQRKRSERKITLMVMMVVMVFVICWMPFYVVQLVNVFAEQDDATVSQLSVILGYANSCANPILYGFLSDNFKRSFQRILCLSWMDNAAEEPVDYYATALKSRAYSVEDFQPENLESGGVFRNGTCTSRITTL
T1 sequence (P32745 whole entry): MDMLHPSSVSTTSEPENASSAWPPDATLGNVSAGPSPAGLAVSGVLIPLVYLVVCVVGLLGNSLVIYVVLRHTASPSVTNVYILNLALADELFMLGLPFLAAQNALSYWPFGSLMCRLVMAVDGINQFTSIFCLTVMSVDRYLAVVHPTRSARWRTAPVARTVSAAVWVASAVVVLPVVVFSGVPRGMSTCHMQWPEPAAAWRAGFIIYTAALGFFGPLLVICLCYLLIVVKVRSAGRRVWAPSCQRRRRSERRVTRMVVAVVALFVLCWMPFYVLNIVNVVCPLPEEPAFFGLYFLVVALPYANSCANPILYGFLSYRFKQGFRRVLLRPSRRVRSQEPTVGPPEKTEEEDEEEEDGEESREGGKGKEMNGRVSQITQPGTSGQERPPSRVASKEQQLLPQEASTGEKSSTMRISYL
T2 sequence (P30874 whole entry): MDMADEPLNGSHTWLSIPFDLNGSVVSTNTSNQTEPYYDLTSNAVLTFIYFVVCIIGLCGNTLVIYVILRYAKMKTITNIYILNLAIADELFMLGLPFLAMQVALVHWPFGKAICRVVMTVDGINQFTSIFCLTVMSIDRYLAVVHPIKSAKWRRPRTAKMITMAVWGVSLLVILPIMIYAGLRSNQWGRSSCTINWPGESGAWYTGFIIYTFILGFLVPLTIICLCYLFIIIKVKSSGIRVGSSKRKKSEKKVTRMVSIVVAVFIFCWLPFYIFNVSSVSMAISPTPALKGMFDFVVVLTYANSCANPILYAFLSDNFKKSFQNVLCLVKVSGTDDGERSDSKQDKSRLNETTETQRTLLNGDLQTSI

As for “cyclo[{4-(NH2—C2H4—NH—CO—O—)Pro}-Phg-DTrp-Lys-Tyr(4-Bzl)-Phe] [diaspartate salt of Compound A]”, in data set [1], the “stability (in words)” value was “Particularly good stability”.
Regarding `NCCCC[C@@H]1NC(=O)[C@@H](Cc2c[nH]c3ccccc23)NC(=O)[C@@H](c2ccccc2)NC(=O)C2CC(OC(=O)NCCN)CN2C(=O)[C@H](Cc2ccccc2)NC(=O)[C@H](Cc2ccc(OCc3ccccc3)cc2)NC1=O` (stereo partly drawn) [Compound B, cyclo[{4-(NH2—C2H4—NH—CO—O—)Pro}-DPhg-DTrp-Lys-Tyr(4-Bzl)-Phe]] (cyclo([ξHyp]([CO-Ethylenediamine])[dPhg][dW]KY(Bn)F)), the “binding affinity towards hsst3 (in words)” value in data set [2] is listed as “low binding affinity”. The “binding affinity towards hsst2 (in words)” value in data set [3] is listed as “no significant binding affinity”. In addition, the “binding affinity towards hsst5 (in words)” value in data set [4] is listed as “good binding affinity”. Also, in data set [5], the “inhibition of growth hormone release in vivo” value is “inhibits growth hormone release”. For the same compound, the “inhibition of GH release in vitro” value in data set [6] is listed as “GH-release inhibiting activity”. Further, the “binding affinity towards hsst1 (in words)” value in data set [7] is on record as “no significant binding affinity”.
